Results: patent publication US6436365B2, “Process for therapeutic treatment of proliferative diseases” (Schering Aktiengesellschaft, priority 1997, dated 2002)

Experiments:
[1] = Topical administration via coronary perfusion/infusion catheter on arteriosclerotic lesion in the carotid artery, gamma camera measurement of activity at the lesion; assay type: in vivo, white New Zealand rabbit; conditions: for % of the dose at the lesion (activity at the lesion as proportion of total activity in the animal): Example 1, rabbit no. 1708, 0.48 mCi in 0.85 ml; for % of the dose at the lesion (activity in the lesion as proportion of total activity in the animal): Example 2, rabbit no. 1856, 1.91 mCi in 1.0 ml
Description: The test animal, a white New Zealand rabbit (internal animal identification no.: 1708, male, 3.7 kg of body weight), was prepared 4 weeks before the actual administration experiment:
Under anesthesia (Rompun/Ketavet 1:2, 1 ml/kg of body weight, i.m. administration), the endothelium was damaged with a 2F Fogarthy balloon catheter in the arteria carotis dextra (balloon denudation). Then, the animal received a special diet with an addition of 0.2% cholesterol. The test animal developed an arteriosclerotic lesion on the balloon-denuded spot created by this pretreatment.
(§1) Topical administration of HMPAO that was labeled with technetium 99m was carried out on the anesthetized test animal (anesthesia type s.o.) via a coronary perfusion/infusion catheter (dispatch 3.0, Xtra slippery coating, manufacturer: Boston Scientific Corporation, Ratingen) directly on the lesion in the carotid artery. The radioactive dose of 0.48 mCi (=17.76 MBq) was administered in a volume of 0.85 ml.
(§2) During the entire experiment, the test animal was under a gamma camera (Elscint SP4 HR) to measure the dispersion of radioactivity in the body. The activity at the lesion was set as a proportion of the total activity (measured at this time in the animal). In the case of this test animal, there was found:
The test animal, a white New Zealand rabbit (internal animal identification no.: 1856, male, 3.3 kg of body weight), was prepared 4 weeks before the actual administration experiment as follows:
as §1, with “The topical administration” for “Topical administration”, “of the” for “of”, “of 1.91” for “of 0.48”, “mCi (=70.67” for “mCi (=17.76”, “of 1.0 ml (flushing with 0.3 ml of physiological saline solution).” for “of 0.85 ml.”
During the entire experiment, the test animal was under a gamma camera (Elscint SP4 HR) to measure the dispersion of radioactivity in the body. The activity in the lesion was set as a proportion of the total activity (measured at this time in the animal).

[2] = Topical administration via microperforated balloon catheter after balloon denudation of the infraranal aorta, gamma camera measurement of activity in the lesion; assay type: in vivo, white New Zealand rabbit
Description: The test animal was a white New Zealand rabbit (internal animal identification no.: 1584, male, 3.4 kg of body weight).
(§3) Under anesthesia (Rompun/Ketavet 1:2, 1 ml/kg of body weight, i.m. administration), the endothelium was damaged with a balloon catheter in the infraranal aorta (balloon denudation). Then, over a period of 5 minutes, technetium 99m-labeled HMPAO was administered to the test animal via a microperforated balloon catheter (4 mm Match-35 PTA, Schneider Company, FRG). The radioactive dose of 0.64 mCi (=23.68 MBq) was administered in a volume of 1 ml.
as §2, with “activity in” for “activity at”
The test animal was a white New Zealand rabbit (internal animal identification no.: 1587, male, 3.5 kg of body weight).
as §3, with “1.18” for “0.64”, “(=43.66” for “(=23.68”
The test animal was a white New Zealand rabbit (internal animal identification no.: 1586, male, 3.3 kg of body weight).
as §3, with “0.45” for “0.64”, “(=16.65” for “(=23.68”

% of the dose at the lesion (activity at the lesion as proportion of total activity in the animal) ([1]; 5 minutes post administration): 55.38%
% of the dose at the lesion (activity in the lesion as proportion of total activity in the animal) ([1]; 5 minutes post administration): 40.74%
% of the dose at the lesion (activity at the lesion as proportion of total activity in the animal) ([1]; 4 hours post administration): 46.78%
% of the dose at the lesion (activity in the lesion as proportion of total activity in the animal) ([1]; 4 hours post administration): 35.13%
% of the dose at the lesion (activity at the lesion as proportion of total activity in the animal) ([1]; 24 hours post administration): 21.45%
% of the dose at the lesion (activity in the lesion as proportion of total activity in the animal) ([1]; 24 hours post administration): 23.69%
% of the dose at the lesion (activity in the lesion as proportion of total activity in the animal) ([2]; 5 minutes post administration, Example 3, rabbit no. 1584, 0.64 mCi in 1 ml): 38.45%
% of the dose at the lesion (activity in the lesion as proportion of total activity in the animal) ([2]; 5 minutes post administration, Example 4, rabbit no. 1587, 1.18 mCi in 1 ml): 37.06%
% of the dose at the lesion (activity in the lesion as proportion of total activity in the animal) ([2]; 5 minutes post administration, Example 5, rabbit no. 1586, 0.45 mCi in 1 ml): 45.56%
% of the dose at the lesion (activity in the lesion as proportion of total activity in the animal) ([2]; 4 hours post administration, Example 3, rabbit no. 1584, 0.64 mCi in 1 ml): 35.64%
% of the dose at the lesion (activity in the lesion as proportion of total activity in the animal) ([2]; 4 hours post administration, Example 4, rabbit no. 1587, 1.18 mCi in 1 ml): 32.03%
% of the dose at the lesion (activity in the lesion as proportion of total activity in the animal) ([2]; 4 hours post administration, Example 5, rabbit no. 1586, 0.45 mCi in 1 ml): 36.39%
% of the dose at the lesion (activity in the lesion as proportion of total activity in the animal) ([2]; 24 hours post administration, Example 3, rabbit no. 1584, 0.64 mCi in 1 ml): 16.63%
% of the dose at the lesion (activity in the lesion as proportion of total activity in the animal) ([2]; 24 hours post administration, Example 4, rabbit no. 1587, 1.18 mCi in 1 ml): 20.01%
% of the dose at the lesion (activity in the lesion as proportion of total activity in the animal) ([2]; 24 hours post administration, Example 5, rabbit no. 1586, 0.45 mCi in 1 ml): 15.24%
Structure (SMILES): C/C(=N\O)C(C)NCC(C)(C)CNC(C)/C(C)=N/O (stereo not drawn) [Example 99mTc-HMPAO, metal not drawn]
